The values that follow come from patent US20250003953A1, “Methods and Model Systems for Assessing Therapeutic Properties of Candidate Agents and Related Computer Readable Media and Systems” (The Regents of the University of California, priority 2021, published 2025).

Test [1] relates to patients derived xenografts (PDX) grown as pooled organoids. Put plainly: Cell cycle inhibition rates from GENEVA in pooled PDX. Format: cell-based, human. The conditions noted are these: PDX with known KRAS.G12C mutations; in vivo and ex vivo systems. From the text:
Using growth-rate balanced heterogeneous cell pools adjusted for long time-course drug treatment, pools were created from four human patient-derived xenograft (PDX) models and implanted as a pooled tumor in a flank xenograft mouse model. The pooled tumors were drugged in mice by oral dosing by gavage for fourteen days with the molecule ARS-1620. After the treatment interval, tumors were harvested from mice, and single-cell RNA sequencing, genetic demultiplexing (as illustrated in Example 2), and sample hashing using barcoded antibodies was performed. Sufficient numbers of cells were observed from each PDX genetic background and drug treatment condition (FIG. 2C,D) for inference of drug phenotype and drug changes to the transcriptome. Pools from four PDX models were created for implantation for a fourteen day drug treatment in a 3D Organoid model system. […]
Cell Cycle was calculated by regressing whole transcriptome readouts and weighting according to specified genes of interest related to different cell cycle states. Cells were assigned into G1, S, and G2/M. The cell cycle ratio was then calculated as fraction of cells per population: […]
yielded a function where the slope was determined as the cell cycle inhibition rate, reflecting an alternative way to measure phenotype derived solely from transcriptome drug perturbation data over a long time course.

In test [2] the test system is KRAS.G12C lines in GENEVA pools. Nature of the test: GENEVA pool transcriptome changes in cells surviving drug treatment. The test is classed as cell-based, human. The method, then: Long-time course GENEVA pools were created to understand how ARS1620 achieved durable tumor regression in human cells. A seven day drug treatment regimen was conducted and transcriptome changes in surviving cells were analyzed.
For each cell line, single cell datasets were divided into two sub-datasets: vehicle treated and drug treated. Differential expression was calculated between two single-cell datasets using a two-sample t-test. A differential expression score was obtained for each gene from two-sample t-test output. All cell lines were repeated until done and all differential expression scores for genes were saved into aggregated differential expression tables by cell line. Cells were grouped according to their phenotypic sensitivity to the tested compound. For tested compounds, the genetic driver of the compound sensitivity was discovered as described previously herein. Using the genetic driver, cell lines were classified by presence or absence of the driver into two categories, sensitive vs non-sensitive. The differential expression matrix was grouped into sensitive and insensitive cell lines. z-scores for genes within each cell line were calculated, genes were grouped by gene sets from biological geneset databases curated from scientific literature, and two sample T-tests with grouped z-scores were performed. First, all differential expression scores were normalized to the same scale by z-score within each cell line. […] Summary statistics from each gene test were saved and the z-score difference was calculated. The biological mechanism of action of the molecule of interest was determined by rank ordering the median z score results from each geneset to determine the relative upregulation or downregulation of genesets in response to the compound.
Among this group of genes were FTH1 and FTL, the two components of the Ferritin Complex, which is responsible for sequestration of labile free iron. Using a lipid peroxidation live cell probe, lipid peroxidation—one of the hallmark phenotypes of ferroptosis—was measured in response to ARS-1620 treatment.

Test [3] relates to KRAS.G12C cell line H2030. Nature of the test: Lipid peroxidation by KRAS inhibitors in KRAS.G12C line. Format: cell-based, human. Here is the method: FIG. 7B plots gene expression of anti-ferroptotic genes for each cell line in response to increasing ARS1620 dosage.
Using a lipid peroxidation live cell probe, lipid peroxidation—one of the hallmark phenotypes of ferroptosis—was measured in response to ARS-1620 treatment.

For test [4], the system named is KRAS.G12C cell lines in a cell pool. Put plainly: GENEVA pool gene set expression after drug, in vitro. Format: cell-based, human. The conditions noted are these: post-drug treatment. From the text: The GENEVA datasets were compared where GENEVA pools were drugged with the KRAS.G12C inhibitor ARS1620, conducted both in vitro and in vivo. Specifically, the in vitro data were compared against the in vivo data to look for differences and similarities attributable to the context of the model systems used. […] As a validation study, a combination therapy multi-arm in vivo mouse study was designed to test the efficacy of an EMT inhibitor, Galunisertib in combination with ARS1620.
For in vivo and in vitro datasets, we combined the median z score results determined in Example 8 and t-test results, respectively, were combined on a paired geneset by geneset basis. The combined zscore results table from both in vivo and in vitro was then used to calculate an “in vivo Specificity Score” as follows:
For each geneset, “in vivo Specificity Score”=[(in vivo median zscore)−(in vitro median zscore)]/mean([log 10 (in vivo pvalue), log 10 (in vitro pvalue)]

For test [5], the system named is tumors from KRAS.G12C, EML4-ALK, and TH21 lung cancer patients. Nature of the test: GENEVA pools of PDX models, relative survival by genotype. Format: in vivo, human. The conditions noted are these: PDX GENEVA pool. From the text: Higher confidence metrics are noted in the dotted line, or Noise Corrected Algorithm results.
GENEVA pools of PDX models were created for a long term drug treatment assay. Tumors were implanted in vivo and in organoids, and tumors from KRAS.G12C, EML4-ALK, and TH21 lung cancer patients were drugged in GENEVA pools. Significant drug sensitivity was found in EML4-ALK patient greater than sensitivity of KRAS.G12C mutant tumors indicating EML4-ALK patient tumors would respond to a KRAS.G12C inhibitor (FIG. 9B).

Consider `C=CC(=O)N1CCN(c2ncnc3c(F)c(-c4c(O)cccc4F)c(Cl)cc23)CC1` [ARS1620], for which, in test [1], the “drug sensitivity by estimation of cell cycle inhibition rates” value is “shown to be sensitive to the compound (patients 877 and 233)”. Further, the “percentage of mitochondrial reads in surviving cell subpopulations” value in test [2] (after drug treatment, within each cell line of the pool) was “significantly lower percentage of mitochondrial reads relative to overall reads”. Besides, the “expression of anti-ferroptotic genes in surviving cells” value in test [2] (long-term treatment, across KRAS.G12C lines) was “Consistently upregulated genes across cell lines were found to be involved in an anti-ferroptotic response mechanism”. Moreover, in test [2] (seven day drug treatment regimen), the “expression of mitochondrially encoded genes in surviving cells” value is listed as “Mitochondrially encoded genes were downregulated”. In test [3], the lipid peroxidation entry is listed as “increased lipid peroxidation”. Further, the “endothelial-mesenchymal transition hallmark gene expression signature” value in test [4] is “showed no difference in vitro”. For the same compound, the “relative survival of genotype under treatment or vehicle” value in test [5] was “EML4-ALK as the most drug sensitive tumor type”.
